“And” between values parts separate entries of the source, which are not always exact repeats. Equal values may be shown once.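 Interpolation was linear, between the two tested concentrations surrounding the appropriate level; five concentrations were tested over 48 hours in 96-well plates. At the GI50, growth is halved. At the TGI there is no net growth.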
Tests used:
Assay in all cases: DTP human tumour cell line panel, 48 h
[1] = tested on: SF-539 CNS
[2] = tested on: M14 melanoma
[3] = tested on: UACC-257 melanoma
[4] = tested on: HCT-116 colon
[5] = tested on: SW-620 colon
[6] = tested on: NCI/ADR-RES ovarian
[7] = tested on: NCI-H226 lung
[8] = tested on: IGROV1 ovarian
[9] = tested on: A549 NSCLC
[10] = tested on: PC-3 prostate
[11] = tested on: COLO 205 colon
[12] = tested on: DU-145 prostate
[13] = tested on: 786-0 renal
[14] = tested on: SF-295 CNS
[15] = tested on: HOP-92 NSCLC
[16] = tested on: NCI-H23 lung
[17] = tested on: UO-31 renal
[18] = tested on: SF-268 CNS
[19] = tested on: OVCAR-8 ovarian
[20] = tested on: OVCAR-4 ovarian
[21] = tested on: SK-MEL-5 melanoma
[22] = tested on: SK-OV-3 ovarian
[23] = tested on: U251 CNS
[24] = tested on: MDA-MB-231 breast
[25] = tested on: SK-MEL-2 melanoma
[26] = tested on: BT-549 breast
[27] = tested on: SNB-19 CNS
[28] = tested on: TK-10 renal
[29] = tested on: A498 renal
[30] = tested on: DLD-1 colon
[31] = tested on: OVCAR-3 ovarian
[32] = tested on: SR leukemia
[33] = tested on: KM12 colon
[34] = tested on: NCI-H522 lung
[35] = tested on: DMS 273 small cell lung
[36] = tested on: HS 578T breast
[37] = tested on: HCC-2998 colon
[38] = tested on: UACC-62 melanoma
[39] = tested on: OVCAR-5 ovarian
[40] = tested on: NCI-H460 lung
[41] = tested on: CCRF-CEM leukemia
[42] = tested on: RXF 393 renal
[43] = tested on: MCF7 breast
[44] = tested on: SN12C renal
[45] = tested on: LOX IMVI melanoma
[46] = tested on: SK-MEL-28 melanoma
[47] = tested on: SNB-78 CNS
[48] = tested on: M19-MEL melanoma
[49] = tested on: T-47D breast
[50] = tested on: K-562 leukemia
[51] = tested on: ACHN renal
[52] = tested on: MALME-3M melanoma
[53] = tested on: MOLT-4 leukemia
[54] = tested on: HOP-62 NSCLC
[55] = tested on: LXFL 529 NSCLC
[56] = tested on: SNB-75 CNS
[57] = tested on: CAKI-1 renal
[58] = tested on: MDA-N
[59] = tested on: MDA-MB-435
[60] = tested on: XF 498 CNS
[61] = tested on: EKVX NSCLC
[62] = tested on: HOP-18 NSCLC
[63] = tested on: HCT-15 colon
[64] = tested on: RPMI-8226 leukemia
[65] = tested on: HT29 colon
[66] = tested on: HL-60(TB) leukemia
[67] = tested on: KM20L2 colon

Compound `O=C1C(c2ccc([N+](=O)[O-])cc2)=C(Cl)C(=O)c2c(O)cccc21` has a TGI [1] of 39.6 µM, a TGI [2] of 46.5 µM and a TGI [3] of 32.9 µM. The TGI [4] was greater than 56.6 µM, the TGI [5] was 15.5 µM and the TGI [6] was 66.2 µM. It also gave a TGI [7] greater than 59.3 µM, a TGI [8] of 42.4 µM and a TGI [9] greater than 100 µM. It also gave a TGI [10] of 57.3 µM, a TGI [11] of 32.4 µM and a TGI [12] of 42.7 µM. It also gave a TGI [13] of 28.9 µM, a TGI [14] of 98.9 µM and a TGI [15] of 33 µM. For the same compound, the TGI [16] was 36.6 µM, the TGI [17] was 19.1 µM and the TGI [18] was 49.8 µM. It also gave a TGI [19] greater than 86.4 µM, a TGI [20] of 32.1 µM and a TGI [21] greater than 54.8 µM. It also gave a TGI [22] greater than 100 µM, a TGI [23] of 32.6 µM and a TGI [24] of 31.8 µM. The TGI [25] was 34.3 µM, the TGI [26] was 32.1 µM and the TGI [27] was 49.6 µM. For the same compound, the TGI [28] was 34.7 µM, the TGI [29] was 59.3 µM and the TGI [30] was 25.3 µM. It also gave a TGI [31] of 32.6 µM, a TGI [32] greater than 100 µM and a TGI [33] greater than 62.6 µM. For the same compound, the TGI [34] was 21.6 µM, the TGI [35] was greater than 100 µM and the TGI [36] was 65.9 µM. For the same compound, the TGI [37] was greater than 100 µM, the TGI [38] was 35.6 µM and the TGI [39] was greater than 100 µM. It also gave a TGI [40] greater than 100 µM, a TGI [41] greater than 100 µM and a TGI [42] of 29.1 µM. The TGI [43] was 37.7 µM, the TGI [44] was 39.9 µM and the TGI [45] was 32.6 µM. For the same compound, the TGI [46] was 33.9 µM, the TGI [47] was 63.8 µM and the TGI [48] was 36 µM. For the same compound, the TGI [49] was 52.6 µM, the TGI [50] was greater than 100 µM and the TGI [51] was 33 µM. It also gave a TGI [52] of 34.8 µM, a TGI [53] greater than 100 µM and a TGI [54] greater than 100 µM. The TGI [55] was 23.2 µM, the TGI [56] was 96.9 µM and the TGI [57] was 50.2 µM. For the same compound, the TGI [58] was 34.5 µM, the TGI [59] was 31.9 µM and the TGI [60] was 22.4 µM. For the same compound, the TGI [61] was 46.6 µM, the TGI [62] was 19.6 µM and the TGI [63] was 54 µM. It also gave a TGI [64] greater than 100 µM, a TGI [65] of 43.5 µM and a TGI [66] greater than 100 µM.

Work on `COc1ccc(/C(Cl)=C(\CN(C)C)c2ccc(OC)c(OC)c2)cc1OC` yielded a TGI [1] greater than 100 µM, a TGI [2] greater than 100 µM and a TGI [3] greater than 100 µM. It also gave a TGI [4] greater than 46.4 µM, a TGI [5] greater than 100 µM and a TGI [7] greater than 100 µM. The TGI [8] was greater than 100 µM, the TGI [9] was greater than 100 µM and the TGI [11] was greater than 100 µM. The TGI [13] was greater than 100 µM, the TGI [14] was greater than 100 µM and the TGI [16] was greater than 100 µM. For the same compound, the TGI [17] was greater than 100 µM, the TGI [18] was greater than 100 µM and the TGI [19] was greater than 100 µM. For the same compound, the TGI [21] was greater than 100 µM, the TGI [22] was greater than 100 µM and the TGI [23] was greater than 100 µM. For the same compound, the TGI [25] was greater than 100 µM, the TGI [27] was greater than 100 µM and the GI50 [28] was greater than 27.9 µM. It also gave a TGI [28] greater than 100 µM, a TGI [29] greater than 100 µM and a TGI [30] greater than 100 µM. The TGI [31] was greater than 100 µM, the TGI [32] was greater than 100 µM and the TGI [33] was greater than 100 µM. It also gave a TGI [34] greater than 100 µM, a TGI [35] greater than 100 µM and a TGI [37] greater than 100 µM. The TGI [38] was greater than 100 µM, the TGI [39] was greater than 100 µM and the TGI [40] was greater than 100 µM. It also gave a TGI [41] greater than 100 µM, a TGI [42] greater than 28.6 µM and a TGI [44] greater than 100 µM. For the same compound, the TGI [45] was greater than 100 µM, the TGI [46] was greater than 100 µM and the TGI [47] was 97.9 µM and > 100 µM. The TGI [48] was greater than 100 µM, the TGI [50] was greater than 100 µM and the TGI [51] was greater than 100 µM. For the same compound, the TGI [52] was greater than 100 µM, the TGI [53] was greater than 100 µM and the TGI [54] was greater than 100 µM. The TGI [55] was greater than 100 µM, the TGI [56] was greater than 100 µM and the TGI [57] was greater than 100 µM. The TGI [67] was greater than 100 µM, the TGI [60] was greater than 100 µM and the TGI [61] was greater than 100 µM. It also gave a TGI [62] greater than 100 µM, a TGI [63] greater than 100 µM and a TGI [64] greater than 100 µM. The TGI [65] was greater than 100 µM and the TGI [66] was greater than 100 µM.

With `CC1=CC2C(=O)N(c3ccccc3)C(=O)C2CC1n1[nH]c(=O)n(Cc2ccccc2)c1=O` (stereo unspecified) the TGI [1] was greater than 100 µM, the TGI [2] was greater than 100 µM and the TGI [3] was greater than 100 µM. It also gave a TGI [4] greater than 100 µM, a TGI [5] greater than 100 µM and a TGI [7] greater than 100 µM. The TGI [8] was greater than 100 µM, the TGI [9] was greater than 100 µM and the TGI [11] was greater than 100 µM. For the same compound, the TGI [13] was greater than 100 µM, the TGI [14] was greater than 100 µM and the TGI [15] was greater than 100 µM. For the same compound, the TGI [16] was greater than 100 µM, the TGI [17] was greater than 100 µM and the TGI [18] was greater than 100 µM. The TGI [19] was greater than 100 µM, the TGI [20] was greater than 100 µM and the TGI [21] was greater than 100 µM. The TGI [22] was greater than 100 µM, the TGI [23] was greater than 100 µM and the TGI [25] was greater than 100 µM. The TGI [27] was greater than 100 µM, the TGI [28] was greater than 100 µM and the TGI [29] was greater than 100 µM. It also gave a TGI [30] greater than 100 µM, a TGI [31] greater than 100 µM and a TGI [32] greater than 100 µM. For the same compound, the TGI [33] was greater than 100 µM, the TGI [34] was greater than 100 µM and the TGI [35] was greater than 100 µM. For the same compound, the TGI [37] was greater than 100 µM, the TGI [38] was greater than 100 µM and the TGI [39] was greater than 100 µM. The TGI [40] was greater than 100 µM, the TGI [41] was greater than 100 µM and the TGI [42] was greater than 100 µM. It also gave a TGI [44] greater than 100 µM, a TGI [45] greater than 100 µM and a TGI [46] greater than 100 µM. It also gave a TGI [47] greater than 100 µM, a TGI [50] greater than 100 µM and a TGI [51] greater than 100 µM. For the same compound, the TGI [52] was greater than 100 µM, the TGI [54] was greater than 100 µM and the TGI [55] was greater than 100 µM. It also gave a TGI [56] greater than 100 µM, a TGI [57] greater than 100 µM and a TGI [67] greater than 100 µM. For the same compound, the TGI [60] was greater than 100 µM, the TGI [61] was greater than 100 µM and the TGI [62] was greater than 100 µM. The TGI [63] was greater than 100 µM, the TGI [65] was greater than 100 µM and the TGI [66] was greater than 100 µM.
